Data published in article PMC11662004 (Communications Chemistry, 2024).

Target: T1, TET2CDΔLCI (Homo sapiens, UniProt Q6N021)
T1 construct: FLAG-[thrombin cleavage site]-SUMO (N); made in house; host or cells: E. coli
Assay: Continuous reaction monitoring (1H NMR), 2OG decarboxylation
Format: biochemical
Experimental: Double-stranded DNA oligomers were added at a final concentration of 20 µM. Data plotted from two independent replicates (n = 2). Initial rates reported as the mean of two independent replicates (n = 2). TEXT PRINTED IN THE PICTURE: (c) No DNA: V0 (μM min^−1) NgTet1: 0.36; V0 (μM min^−1) TET2: 1.28; Relative V0 NgTet1: 1; Relative V0 TET2: 1 | (c) ^5HC DNA: V0 (μM min^−1) NgTet1: 1.30; V0 (μM min^−1) TET2: 6.34; Relative V0 NgTet1: 3.6; Relative V0 TET2: 5.0 | (c) AT DNA: V0 (μM min^−1) NgTet1: 0.82; V0 (μM min^−1) TET2: 5.78; Relative V0 NgTet1: 2.3; Relative V0 TET2: 4.5 | (c) ^5mC DNA: V0 (μM min^−1) NgTet1: 1.52; V0 (μM min^−1) TET2: 6.79; Relative V0 NgTet1: 4.2; Relative V0 TET2: 5.3
All ^1H NMR spectra were recorded at 25 °C using D2O as a reference for internal deuterium lock on a Bruker Avance III 700 MHz equipped with an inverse TCI cryoprobe in 3 or 5 mm diameter tubes with a total sample volume of 160 or 565 μL, respectively. The water signal was reduced using Perfect Echo excitation sculpting suppression. Chemical shifts are reported in ppm relative to D2O (δH = 4.70 ppm).
Spectrometer settings were determined using a control sample containing all reaction components excluding enzyme. TET enzyme was added to an identical sample, and the resulting assay mixture was transferred to an NMR tube before deposition into the instrument. […] Data acquisition was started following a brief spectrometer setting optimisation (up to 200 s delay between enzyme addition and data acquisition); 8–32 scans were accumulated for a single spectrum, corresponding to 65–179 s of acquisition time. Spectrum recordings were carried out consecutively without delay. Data were processed using automated routines on MestReNova v14.2.0; signals of interest were integrated with absolute intensity scaling. ^1H NMR time courses reported in figures are representative results from two or three independent replicates.

AT DNA: double-stranded self-complementary 5'-ACC ACA TGT GGT-3', CpG replaced by ApT (DNA ACCACATGTGGT; DNA, backbone and methylation of C not given here; self-complementary duplex)
V0 TET2 (20 µM DNA, 100 μM 2OG, 5 μM TET2CDΔLCI): 5.78 µM/min | succinate (n = 1, time (min) 5HC DNA 5.78333, AT DNA 5.73333, 5mC DNA 5.58333): 39.5956 µM | succinate (n = 1, time (min) 5HC DNA 8.86667, AT DNA 8.81667, 5mC DNA 8.65): 49.5065 µM | succinate (n = 1, time (min) 5HC DNA 11.95, AT DNA 11.8833, 5mC DNA 11.7333): 54.2458 µM | succinate (n = 1, time (min) 5HC DNA 15.0333, AT DNA 14.9667, 5mC DNA 14.8167): 57.9674 µM | succinate (n = 1, time (min) 5HC DNA 18.1167, AT DNA 18.05, 5mC DNA 17.9): 59.2828 µM | succinate (n = 1, time (min) 5HC DNA 21.2333, AT DNA 21.1333, 5mC DNA 21): 62.1944 µM | succinate (n = 1, time (min) 5HC DNA 24.3333, AT DNA 24.2167, 5mC DNA 24.0667): 62.9572 µM | succinate (n = 1, time (min) 5HC DNA 27.4167, AT DNA 27.3, 5mC DNA 27.15): 64.7984 µM | succinate (n = 1, time (min) 5HC DNA 30.55, AT DNA 30.3833, 5mC DNA 30.2333): 64.7023 µM | succinate (n = 1, time (min) 5HC DNA 33.65, AT DNA 33.4667, 5mC DNA 33.3167): 65.163 µM | succinate (n = 1, time (min) 5HC DNA 36.7333, AT DNA 36.5333, 5mC DNA 36.4): 66.9776 µM | succinate (n = 1, time (min) 5HC DNA 39.8333, AT DNA 39.6167, 5mC DNA 39.4833): 66.6376 µM | succinate (n = 1, time (min) 5HC DNA 42.9, AT DNA 42.7, 5mC DNA 42.5667): 66.8738 µM | succinate (n = 1, time (min) 5HC DNA 46, AT DNA 45.7833, 5mC DNA 45.6667): 68.072 µM | succinate (n = 1, time (min) 5HC DNA 49.0833, AT DNA 48.8667, 5mC DNA 48.75): 67.0651 µM | succinate (n = 1, time (min) 5HC DNA 52.1667, AT DNA 51.95, 5mC DNA 51.8333): 67.7938 µM | succinate (n = 1, time (min) 5HC DNA 55.25, AT DNA 55.0333, 5mC DNA 54.9167): 69.134 µM | succinate (n = 1, time (min) 5HC DNA 58.3167, AT DNA 58.1167, 5mC DNA 58): 67.5356 µM | succinate (n = 1, time (min) 5HC DNA 61.4, AT DNA 61.2667, 5mC DNA 61.1): 68.2246 µM | succinate (n = 2, time (min) 5HC DNA 5.66667, AT DNA 5.66667, 5mC DNA 5.8): 40.358 µM | succinate (n = 2, time (min) 5HC DNA 8.75, AT DNA 8.75, 5mC DNA 8.88333): 49.4783 µM | succinate (n = 2, time (min) 5HC DNA 11.8333, AT DNA 11.85, 5mC DNA 11.9667): 54.4351 µM | succinate (n = 2, time (min) 5HC DNA 14.9167, AT DNA 14.9333, 5mC DNA 15.05): 56.62 µM | succinate (n = 2, time (min) 5HC DNA 18.0167, AT DNA 18.0167, 5mC DNA 18.1167): 59.0171 µM | succinate (n = 2, time (min) 5HC DNA 21.1, AT DNA 21.1, 5mC DNA 21.2): 60.9868 µM | succinate (n = 2, time (min) 5HC DNA 24.1833, AT DNA 24.1667, 5mC DNA 24.2833): 62.4531 µM | succinate (n = 2, time (min) 5HC DNA 27.25, AT DNA 27.25, 5mC DNA 27.3667): 63.5112 µM | succinate (n = 2, time (min) 5HC DNA 30.3333, AT DNA 30.3333, 5mC DNA 30.45): 64.7948 µM | succinate (n = 2, time (min) 5HC DNA 33.4167, AT DNA 33.4167, 5mC DNA 33.5333): 64.9179 µM | succinate (n = 2, time (min) 5HC DNA 36.5, AT DNA 36.5, 5mC DNA 36.6167): 65.839 µM | succinate (n = 2, time (min) 5HC DNA 39.5833, AT DNA 39.5833, 5mC DNA 39.7): 65.6357 µM | succinate (n = 2, time (min) 5HC DNA 42.6667, AT DNA 42.6667, 5mC DNA 42.7833): 67.3494 µM | succinate (n = 2, time (min) 5HC DNA 45.75, AT DNA 45.75, 5mC DNA 45.8667): 68.1347 µM | succinate (n = 2, time (min) 5HC DNA 48.8333, AT DNA 48.8333, 5mC DNA 48.95): 66.7934 µM | Relative V0 TET2 (relative to reactions without DNA): 4.5
